Like-named read-outs stand apart in the source and are kept apart here. Where a SMILES comes first, the peptide text is derived from it. The star is where a group is joined. Biotin = O=C1N[C@H]2[C@H](CS[C@H]2CCCCC(=O)*)N1; Ahx = NCCCCCC(=O)O
What was measured:
MV411 = experiment: Caspase-3/7 activation assay; assay type: cell-based
Experimental: (§4) Cells were plated at 3000 cells/well in 384-well white plates in corresponding cell growth media. […] Caspase-3/7 activation was subsequently determined using a Caspase-Glo 3/7 Reagent (Promega) and viability was assayed using the CellTiter-Glo Reagent (Promega) as described in manufacturer’s instructions. Dose–response curves for caspase-3/7 activation and viability were plotted and analyzed (including EC50 and GI50 determination) using GraphPad Prism.

H23 = experiment: Caspase-3/7 activation assay; assay type: cell-based; conditions: for EC50: caspase activation, Mcl-1-dependent cell line, read-out: NCI-H23, EC50; for NCI-H23 caspase pEC50: mean of log transformed data
Experimental: as §4

MOLP8 = experiment: Caspase-3/7 activation assay; assay type: cell-based
Experimental: as §4

Mcl-1 [1] = target: T1, Mcl-1 (Homo sapiens, UniProt Q07820); experiment: TR-FRET binding assay; parameters: N-terminal GST-tagged-Mcl-1 protein from Mcl-1 (E171-G327); made in house; host or cells: E. coli
T1 sequence (Q07820 171-327): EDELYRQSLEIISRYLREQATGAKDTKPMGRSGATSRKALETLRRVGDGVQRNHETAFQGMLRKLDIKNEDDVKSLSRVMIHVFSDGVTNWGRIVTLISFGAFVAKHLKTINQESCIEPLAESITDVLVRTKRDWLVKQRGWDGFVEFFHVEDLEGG
Experimental: Percent inhibition was calculated based upon min (control compound) vs. max (DMSO) according to Eq. (2) and the IC50 was derived the smart fit curve (Genedata screener) of % inhibition vs. concentration. Ki values were calculated from Eq.

Mcl-1 [2] = target: T1, Mcl-1; experiment: SPR direct binding assay; parameters: 6His-tagged Mcl-1 protein (E171-G327) was immobilized using NTA capture-coupling
Experimental: A Biacore T200 instrument (GE Healthcare) was used to monitor binding interactions using a direct binding assay format. 6His-tagged Mcl-1 protein (E171-G327) was immobilized using NTA capture-coupling at a flow rate of 10 μL min^-1 and using an immobilization running buffer containing 10 mM HEPES, 300 mM NaCl, 1 mM TCEP, and 0.05% Tween-20 at 25 °C. […] Approximately 300 response units of Mcl-1 protein (2 μg mL^-1 in immobilization running buffer) were immobilized using the ‘aim for’ function in the T200 Control Software (GE Healthcare). Remaining reactive esters were blocked using a 7 min injection of 1 M ethanolamine. Reference flow cells were prepared without protein. All binding measurements were performed in 10 mM Tris, pH 7.5, 300 mM NaCl, 1 mM TCEP, 1% DMSO, and 0.02% Tween-20 at 25 °C at a flow rate of 30 μL min^-1. Buffer was primed through the instrument overnight to stabilize the surface before subsequent assay steps. Prior to kinetic analysis, solvent calibration and double referencing subtractions were made to eliminate bulk refractive index changes, injection noise, and data drift. Affinity and binding kinetic parameters were determined by global fitting to a 1:1-binding model within the Biacore T200 Evaluation Software (GE Healthcare).

Bcl-w = target: T2, Bcl-w (Homo sapiens, UniProt Q92843); experiment: TR-FRET binding assay; conditions: binding to Bcl-w, used in Ki calculations; read-out: Peptide, Kd
T2 construct: N-Terminal 6His-tagged Bcl-w protein from Bcl-w (M1-R171); made in house; host or cells: E. coli
T2 sequence (Q92843 1-171): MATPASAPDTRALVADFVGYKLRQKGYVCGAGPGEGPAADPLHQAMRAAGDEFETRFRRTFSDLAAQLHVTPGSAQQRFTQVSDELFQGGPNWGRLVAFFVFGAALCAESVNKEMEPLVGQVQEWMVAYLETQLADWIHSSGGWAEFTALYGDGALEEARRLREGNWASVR
Excerpt: (§1) N-terminal GST-tagged-Mcl-1 protein from Mcl-1 (E171-G327), N-terminal GST-tagged Bcl-xL protein from Bcl-xL (1-209), N-Terminal 6His-tagged Bfl-1 protein from Bfl-1 (M1-K151), N-Terminal 6His-tagged Bcl-w protein from Bcl-w (M1-R171), and C-Terminal 6His-tagged Bcl-2 protein from Bcl-2 (M1-F212) were expressed as a tagged fusion protein in E. coli and subsequently purified via Glutathione Sepharose-affinity or Ni-NTA resin purification, and size-exclusion chromatography.
(§2) For TR-FRET, tagged fusion proteins were incubated with a Europium-labeled antibody and a HyLite Fluor 647-labeled peptide, or a biotin-labeled peptide with a streptavidin-labeled ulight fluorophore allowing the assembly of donor and acceptor dye pairs for use in protein-binding assays.
(§3) The reaction final concentrations for Mcl-1 were 1.5 nM GST-Mcl-1, 0.5 nM LanthaScreen Eu tagged GST antibody (LifeTechnologies cat#PV5594), and 4 nM HyLite Fluor 647-labeled Bim peptide C (Hilyte647 C2 Maleimide)-[…]; for Bcl-xl were 2 nM GST-Bcl-xl, 2 nM LanthaScreen Eu-tagged GST antibody, and 10 nM HyLite Fluor 647-labeled BAK peptide C(Hilyte647 C2 Maleimide)-[…]; for Bfl-1 were 4 nM His-Bfl-1, 0.5 nM LanthaScreen Eu-tagged HIS antibody (PerkinElmer cat#AD0205), and 10 nM HyLite Fluor 647-labeled BIM peptide C(Hilyte647-C2-Maleimide)-[…]; for Bcl-2 and Bcl-w: 2 nM His-Bcl-2, or 2 nM His-Bcl-w, with 0.5 nM LanthaScreen Eu-tagged HIS antibody, 10 nM biotin-labeled Bim peptide (Biotin-lc-[…]), and 2.4 nM a streptavidin labeled ULight Fluorophore (PerkinElmer cat#TRF0102-D). Reactions were incubated at 24 °C for 120–180 min before reading on a Tecan (InfiniteM1000 spectrofluorometer) with excitation at 340 nm and emission at […] and 665 nm. Ratio of fluorescent emission intensity at 665–620 nm was calculated for each reaction (equation 1). Percent inhibition was calculated based upon min (control compound) vs. max (DMSO) according to Eq. (2) and the IC50 was derived the smart fit curve (Genedata screener) of % inhibition vs. concentration. Ki values were calculated from Eq. […]

Bcl-2 = target: T3, Bcl-2 (Homo sapiens, UniProt P10415); experiment: TR-FRET binding assay; conditions: binding to Bcl-2, used in Ki calculations; read-out: Peptide, Kd
T3 construct: C-Terminal 6His-tagged Bcl-2 protein from Bcl-2 (M1-F212); made in house; host or cells: E. coli
T3 sequence (P10415 1-212): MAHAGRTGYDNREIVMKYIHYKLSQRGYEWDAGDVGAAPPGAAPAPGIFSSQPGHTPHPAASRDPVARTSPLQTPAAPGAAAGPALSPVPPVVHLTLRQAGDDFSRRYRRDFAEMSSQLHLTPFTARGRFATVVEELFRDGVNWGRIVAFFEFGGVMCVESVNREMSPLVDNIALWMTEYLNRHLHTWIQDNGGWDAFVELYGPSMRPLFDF
Excerpt: as §1, §2, §3

CMK = experiment: Caspase-3/7 activation assay; assay type: cell-based; conditions: Homo sapiens, 6 h, read-out: 6h caspase EC50; CMK, single agent
Experimental: as §4

ME1 = experiment: Caspase-3/7 activation assay; assay type: cell-based; conditions: ME-1, 6 h, read-out: 6h caspase EC50; ME1, single agent
Experimental: as §4

NB4 = experiment: Caspase-3/7 activation assay; assay type: cell-based; conditions: Homo sapiens, NB-4, 6 h, read-out: 6h caspase EC50; NB4, single agent
Experimental: as §4

OCIAML3 = experiment: Caspase-3/7 activation assay; assay type: cell-based; conditions: Homo sapiens, OCI-AML-3, 6 h, read-out: 6h caspase EC50; OCIAML3, single agent
Experimental: as §4

OCIAML5 = experiment: Caspase-3/7 activation assay; assay type: cell-based; conditions: Homo sapiens, OCI-AML-5, 6 h, read-out: 6h caspase EC50; OCIAML5, single agent
Experimental: as §4

KG1 = experiment: Caspase-3/7 activation assay; assay type: cell-based; conditions: Homo sapiens, KG-1, 6 h, read-out: 6h caspase EC50; KG1, single agent
Experimental: as §4

Nomo1 = experiment: Caspase-3/7 activation assay; assay type: cell-based; conditions: Homo sapiens, NOMO-1, 6 h, read-out: 6h caspase EC50; NOMO1, single agent
Experimental: as §4

MOLM-13 leukemic cells = experiment: MOLM-13 disseminated AML model; assay type: in vivo, mice; conditions: venetoclax 100 mg kg^−1 p.o. daily, AZD5991 60 mg kg^−1 i.v. weekly, after 10 days
Excerpt: MOLM-13: These studies complied with all relevant ethical regulations described in the guidelines established by GV-SOLAS Institutional Animal Care and Use Committee. Female CIEA-NOG mice were purchased from Taconic. Mice between 5 and 8 weeks old were tail vein injected with five million MOLM-13 cells. Treatment started 3 days after implantation. AZD5991, venetoclax, and vehicle were formulated and administered as mentioned above. Bone marrow and peripheral blood were collected 10 days post-treatment initiation, followed by red cell lysis (ACK lysis buffer), washes with FC buffer (PBS + 2% FCS) and cell staining with AquaZombie live/dead stain (cat#423102, Biolegend) containing antibodies against human CD45 (cat#564105, BDBiosciences) and human HLA-ABC (cat#561346, BDBiosciences) or isotype controls (mIgG1 cat#552834, BDBiosciences; mIgG1 cat#561504, BDBiosciences). Samples were washed with FC buffer and data acquired on an Attune NXT cytometer and analyzed using FlowJo software. Gating was performed on single/live/FCS vs. SSC/HLA-ABC vs. hCD45 double positive cells (Supplementary Figure 8).

MOLM13 = experiment: Caspase-3/7 activation assay; assay type: cell-based; conditions: Homo sapiens, MOLM-13, 6 h, read-out: 6h caspase EC50; MOLM13, single agent
Experimental: as §4

HEL92.1.7 = experiment: Caspase-3/7 activation assay; assay type: cell-based; conditions: Homo sapiens, HEL 92.1.7, 6 h, read-out: 6h caspase EC50; HEL9217, single agent
Experimental: as §4

OCIM1 = experiment: Caspase-3/7 activation assay; assay type: cell-based; conditions: OCI-M1, 6 h, read-out: 6h caspase EC50; OCIM1, single agent
Experimental: as §4

[3] = caspase activation, Mcl-1-dependent cell line, read-out: MV4-11, EC50
[4] = caspase activation, Mcl-1-dependent cell line, read-out: MOLP-8, EC50

EC50 (MV411; [3]) [nM] | MV4-11 caspase pEC50 (MV411; mean of log transformed data) | EC50 (H23) [nM] | NCI-H23 caspase pEC50 (H23) | EC50 (MOLP8; [4]) [nM] | MOLP-8 caspase pEC50 (MOLP8; mean of log transformed data) | IC50 (Mcl-1 [1]; read-out: Mcl-1 FRET, IC50) [nM] | Kd (Mcl-1 [2]; read-out: Mcl-1 SPR, Kd) [nM] | SMILES | further results
– | – | – | – | – | – | 770 | – | Cc1c(-c2cccc3c(CCCOc4cccc5ccccc45)c(C(=O)O)[nH]c23)c(CSCc2nn(C)c(C)c2-c2cccc3c(CCCOc4cccc5ccccc45)c(C(=O)O)[nH]c23)nn1C [Compound 3] | –
1860 | 5.73 | 20900 | 4.68 | 3550 | 5.45 | 6 | 11 | Cc1nn(C)c(COc2ccc(N3CCN(S(=O)(=O)N(C)C)CC3)cc2)c1-c1cccc2c(CCCOc3cccc4ccccc34)c(C(=O)O)n(CCN3CCOCC3)c12 [Compound 8, A-1210477, reference compound] | MCL1 FRET pIC50 (Mcl-1 [1]; mean of log transformed data): 8.20; MCL1 SPR pKd (Mcl-1 [2]; mean of log transformed data): 7.94
1050 | 5.98 | 5750 | 5.24 | 660 | 6.18 | 4 | 8 | Cc1c2c(nn1C)CSCc1cc(n(C)n1)CSc1cc(c3ccccc3c1)OCCCc1c(C(=O)O)n(C)c3c-2cccc13 [Compound 6] | MCL1 FRET pIC50 (Mcl-1 [1]; mean of log transformed data): 8.37; MCL1 SPR pKd (Mcl-1 [2]; mean of log transformed data): 8.10
– | – | – | – | – | – | – | – | CC[C@H](C)[C@H](NC(=O)[C@H](CCCNC(=N)N)NC(=O)[C@H](CCCNC(=N)N)NC(=O)[C@H](CC(C)C)NC(=O)[C@H](CCC(=O)O)NC(=O)[C@H](CC(N)=O)NC(=O)[C@H](C)NC(=O)[C@@H](NC(=O)[C@H](Cc1c[nH]c2ccccc12)NC(=O)[C@@H](NC(=O)[C@H](CCC(=O)O)NC(=O)[C@@H]1CCCN1C(=O)[C@H](CCCNC(=N)N)NC(=O)[C@H](CCSC)NC(=O)CNC(=O)CNC(=O)CCCCCNC(=O)CCCC[C@@H]1SC[C@@H]2NC(=O)N[C@@H]21)[C@@H](C)CC)[C@@H](C)CC)C(=O)NCC(=O)N[C@@H](CC(=O)O)C(=O)N[C@@H](CCC(=O)O)C(=O)N[C@@H](Cc1ccccc1)C(=O)N[C@@H](CC(N)=O)C(=O)N[C@@H](C)C(=O)O [Biotin Bim peptide(biotin-Ic-), reference compound] ({Biotin-Ahx}-GGMRPEIWIANELRRIGDEFNA-OH) | Kd (Bcl-w): 10 nM; Kd (Bcl-2): 5 nM
– | – | – | – | – | – | 1100 | – | Cc1ccccc1-c1cccc2c(CCCOc3cccc4c3CCCC4)c(C(=O)O)[nH]c12 [Compound 1, reference compound] | –
– | – | – | – | – | – | – | – | CC1(C)CCC(CN2CCN(c3ccc(C(=O)NS(=O)(=O)c4ccc(NCC5CCOCC5)c([N+](=O)[O-])c4)c(Oc4cnc5[nH]ccc5c4)c3)CC2)=C(c2ccc(Cl)cc2)C1 [venetoclax, reference compound] | EC50 (CMK): > 333 nM; EC50 (ME1): 10.2 nM; EC50 (NB4): 27.5 nM; EC50 (OCIAML3): > 333 nM; EC50 (OCIAML5): 73 nM; EC50 (KG1): 269 nM; EC50 (MV411; Homo sapiens, MV4-11, 6 h, read-out: 6h caspase EC50, MV411, single agent): 45.2 nM; EC50 (Nomo1): > 333 nM; percentage of HLA-ABC+ hCD45+ leukemic cells in peripheral blood vs. vehicle (MOLM-13 leukemic cells): significantly reduced; EC50 (MOLM13): 9.66 nM; EC50 (HEL92.1.7): > 333 nM; EC50 (OCIM1): > 333 nM
– | – | – | – | – | – | 19 | 47 | Cc1c2c(nn1C)CSCc1cc(n(C)n1)CSc1cc(c3ccccc3c1)OCCCc1c(C(=O)O)[nH]c3c-2cccc13 [Compound 5] | IC50 (Mcl-1 [1]; mean of log transformed data, read-out: MCL1 FRET pIC50 (converted)): 19.1 nM; Kd (Mcl-1 [2]; mean of log transformed data, read-out: MCL1 SPR pKd (converted)): 46.8 nM; EC50 (MV411; Homo sapiens, MV4-11, caspase activation, Mcl-1-dependent cell line, read-out: MV4-11, EC50): > 31500 nM; EC50 (MV411; Homo sapiens, MV4-11, mean of log transformed data, read-out: MV4-11 caspase pEC50 (converted)): > 31600 nM; EC50 (MOLP8; Homo sapiens, MOLP-8, caspase activation, Mcl-1-dependent cell line, read-out: MOLP-8, EC50): > 31500 nM; EC50 (MOLP8; Homo sapiens, MOLP-8, mean of log transformed data, read-out: MOLP-8 caspase pEC50 (converted)): > 31600 nM

SMILES | EC50 (MV411; [3]) [nM] | MV4-11 caspase pEC50 (MV411; mean of log transformed data) | EC50 (H23) [nM] | NCI-H23 caspase pEC50 (H23) | EC50 (MOLP8; [4]) [nM] | MOLP-8 caspase pEC50 (MOLP8; mean of log transformed data) | IC50 (Mcl-1 [1]; read-out: Mcl-1 FRET, IC50) [nM] | Kd (Mcl-1 [2]; read-out: Mcl-1 SPR, Kd) [nM] | further results
Cc1c2c(nn1C)CSCc1cc(n(C)n1)CSc1cc(c3ccccc3c1)OCCCc1c(C(=O)O)n(C)c3c-2c(Cl)ccc13 (atropisomer, axis not shown; (Sa)) [(Sa)-7] | > 16000 | < 4.8 | > 25000 | < 4.6 | > 16000 | < 4.8 | – | – | –

From PMC6297231 (Nature Communications, 2018)
